Measured values: paper PMC8948939 (Pharmaceutics, 2022)
Like-named read-outs stand apart in the source and are kept apart here.

Columns and labels:
CYP3A4 [1] = molecular target: T1, CYP3A4 (Homo sapiens, UniProt P08684); design: purchased Corning Inc; details: cited from earlier work
CYP2C9 = CYP2C9 (Homo sapiens, UniProt P11712); design: purchased Corning Inc; details: read-out: KM of VRC N-oxidation; cited from earlier work
[2] = taken from literature for IVIVE; ref 7 (supplement); cited from earlier work
CYP3A4 [3] = details: mixed inhibition, cited from earlier work
CYP3A4 [4] = molecular target: T1, CYP3A4; experiment: Michaelis-Menten kinetics of voriconazole N-oxidation by rhCYP3A4
HLM = HLM derived from three individuals, cited from earlier work
[5] = Michaelis-Menten kinetics of voriconazole N-oxidation in human liver microsomes; assay type: in vitro ADME; details: human, human liver microsomes, pH 7.5
[6] = tested on: human liver microsomes (HLM); experiment: as above; assay type: in vitro ADME; details: N-oxidation of voriconazole; HLM 0.2 mg/mL
[7] = cited from earlier work
CYP2C19 = CYP2C19 (Homo sapiens, UniProt P33261); details: read-out: KM of VRC N-oxidation, recombinant CYP2C19, cited from earlier work
Chain of CYP2C19 (P33261 whole entry): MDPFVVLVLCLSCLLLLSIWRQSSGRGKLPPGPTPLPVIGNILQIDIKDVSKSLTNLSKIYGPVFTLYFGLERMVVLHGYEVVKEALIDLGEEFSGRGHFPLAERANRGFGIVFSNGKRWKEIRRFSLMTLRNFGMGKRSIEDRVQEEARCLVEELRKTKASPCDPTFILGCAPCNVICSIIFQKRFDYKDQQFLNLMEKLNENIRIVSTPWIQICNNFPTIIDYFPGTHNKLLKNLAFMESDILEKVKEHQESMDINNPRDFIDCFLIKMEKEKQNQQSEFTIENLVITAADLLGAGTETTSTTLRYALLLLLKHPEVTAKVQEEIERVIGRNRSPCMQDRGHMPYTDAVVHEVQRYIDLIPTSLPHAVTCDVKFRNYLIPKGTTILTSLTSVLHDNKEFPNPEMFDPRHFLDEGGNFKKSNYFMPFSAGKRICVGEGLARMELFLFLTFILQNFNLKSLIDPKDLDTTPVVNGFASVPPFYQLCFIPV

CYP3A4 [8] = experiment: Contribution of CYP3A4 to voriconazole N-oxidation, extrapolation from rhCYP with ISEF; assay type: in vitro ADME; details: human, pH 7.5, VRC N-oxidation, read-out: extrapolated CLint,CYPi,HLM (CYP3A4)
From the text: Towards the Elucidation of the Pharmacokinetics of
Josefine Schulz 1, Antonia Thomas 1, Ayatallah Saleh 1,2, Gerd Mikus 1,3, Charlotte Kloft 1,† and Robin Michelet 1,*,† 1 Department of Clinical Pharmacy & Biochemistry, Institute of Pharmacy, Freie Universitaet Berlin, Kelchstraße 31, 12169 Berlin, Germany
2 Graduate Research Training Program PharMetrX, 12169 Berlin/Potsdam, Germany 3 Department of Clinical Pharmacology and Pharmacoepidemiology, University Hospital Heidelberg, Im Neuenheimer Feld 410, 69120 Heidelberg, Germany
* Correspondence: robin.michelet@fu-berlin.de; Tel.: +49-30-838-50659
† These authors contributed equally to this work
Supplementary Section S1. Marker reactions for CYP2C19, CYP2C9 and CYP3A4 […]
for CYP3A4 [1,2] were used to determine (i) intersystem extrapolation factors (ISEF), (ii) […]
(i) Experiments for the determination of Michaelis-Menten kinetics in HLM were performed at protein concentrations of 0.02, 0.04 and 0.05 mg/mL for the marker reactions of CYP2C19, CYP2C9 and CYP3A4 (n = 3 each), respectively. Two samples were taken from each incubation after 15 and 25 min for investigations on CYP2C19, after 5 and 10 min for CYP2C9 and after 7 and 12 min for CYP3A4, respectively. […]
were applied as substrate concentrations.
For investigations in rhCYP concentrations of 2.5 pmol/mL rhCYP2C19 (n = 3), […]
respectively. […]

[9] = tested on: human intestine microsomes (HIM); experiment: Michaelis-Menten kinetics of voriconazole N-oxidation in human intestine microsomes; assay type: in vitro ADME; details: N-oxidation of voriconazole; HIM 0.5 mg/mL
[10] = as above; assay type: in vitro ADME; details: human, human intestine microsomes, pH 7.5

T1 sequence (P08684 whole entry): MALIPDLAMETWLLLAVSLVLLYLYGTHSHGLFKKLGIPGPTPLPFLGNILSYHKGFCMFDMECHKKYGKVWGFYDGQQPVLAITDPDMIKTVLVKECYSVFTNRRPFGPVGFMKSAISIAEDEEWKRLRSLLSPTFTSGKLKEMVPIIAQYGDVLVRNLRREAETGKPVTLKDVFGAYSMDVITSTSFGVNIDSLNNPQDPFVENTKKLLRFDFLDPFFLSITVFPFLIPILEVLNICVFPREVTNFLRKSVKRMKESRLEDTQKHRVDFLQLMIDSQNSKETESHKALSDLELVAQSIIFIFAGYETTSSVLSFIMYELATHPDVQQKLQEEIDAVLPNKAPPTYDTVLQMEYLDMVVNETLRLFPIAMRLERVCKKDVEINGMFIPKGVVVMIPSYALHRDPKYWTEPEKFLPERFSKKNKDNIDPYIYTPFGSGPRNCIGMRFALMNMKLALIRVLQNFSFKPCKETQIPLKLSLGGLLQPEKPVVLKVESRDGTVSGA
Chain of CYP2C9 (P11712 whole entry): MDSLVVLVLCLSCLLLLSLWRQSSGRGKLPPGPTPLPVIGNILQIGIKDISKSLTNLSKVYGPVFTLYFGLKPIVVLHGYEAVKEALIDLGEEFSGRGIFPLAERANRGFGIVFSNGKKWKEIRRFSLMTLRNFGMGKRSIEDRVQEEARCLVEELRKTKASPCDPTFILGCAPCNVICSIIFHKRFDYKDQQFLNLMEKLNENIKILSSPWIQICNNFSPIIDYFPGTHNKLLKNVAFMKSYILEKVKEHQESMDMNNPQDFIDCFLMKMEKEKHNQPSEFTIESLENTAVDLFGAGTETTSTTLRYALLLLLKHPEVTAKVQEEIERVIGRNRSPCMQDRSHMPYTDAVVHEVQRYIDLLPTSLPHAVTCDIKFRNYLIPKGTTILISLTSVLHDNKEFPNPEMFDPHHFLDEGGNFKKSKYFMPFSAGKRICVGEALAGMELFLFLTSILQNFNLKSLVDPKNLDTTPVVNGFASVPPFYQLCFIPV

In the case of `C[C@@H](c1ncncc1F)[C@](O)(Cn1cncn1)c1ccc(F)cc1F` [VRC, voriconazole], the Km (CYP3A4 [1]; read-out: KM of VRC N-oxidation, ref 31) is given as 235 µM, the Km (CYP3A4 [1]; read-out: KM of VRC N-oxidation, ref 33) is given as 16 ± 10 µM and the “Vmax of VRC N-oxidation” value (CYP3A4 [1]; ref 31) is given as 0.14 pmol/min·pmol. The “Vmax of VRC N-oxidation” value (CYP3A4 [1]; ref 33) was 0.05 ± 0.01 nmol/min·nmol, the Km (CYP2C9) was 20 µM and the “Fraction unbound in plasma (fuP)” value [2] was 0.5. The Ki (CYP3A4 [3]; competitive part, ref Jeong et al. 43, read-out: Ki (competitive)) was […], the Ki (CYP3A4 [3]; noncompetitive part, ref Jeong et al. 43, read-out: Ki (noncompetitive)) was […] and the “Vmax,rhCYP (95% CI)” value (CYP3A4 [4]; N-oxidation of voriconazole) was 0.00893 (0.00827–0.00958) pmol/min·pmol. For the same molecule, the “CLint of VRC N-oxidation” value (CYP3A4 [4]; ratio of Vmax and KM) was 0.00742 µL/min/pmol, the “Vmax of VRC N-oxidation” value (HLM) was 9.3 pmol/min/mg and the Km (HLM; read-out: KM of VRC N-oxidation) was 8.1 µM. The microsomal CLint ([5]; HLM, ratio of Vmax and KM) was 8.76 µL/min/mg, the Km ([5]; read-out: KM (95% CI)) was 2980 nM and the “Vmax,HLM (95% CI)” value [6] was 26.1 (25.4–26.8) pmol/min·mg. For the same molecule, the bioavailability ([7]; CYP2C19 poor metabolizers) was 94%, the “share of CYP3A4 in the metabolism” value ([7]; clinical trial, CYP2C19 normal and poor metabolizers with/without ritonavir, ref Mikus et al. 76) was 34% and the bioavailability ([7]; extensive metabolizers) was 75%. For the same molecule, the Km (CYP2C19; ref 31) was 3.5 µM, the Km (CYP2C19; ref 33) was 14 ± 6 µM and the microsomal CLint (CYP3A4 [8]; ISEF based on CLint of the marker reactions) was 1.1 µL/min/mg. For the same molecule, the microsomal CLint (CYP3A4 [8]; ISEF based on Vmax) was 2.48 µL/min/mg, the “Vmax,HIM (95% CI)” value [9] was 3.85 (3.70–4.00) pmol/min·mg and the microsomal CLint ([10]; HIM, ratio of Vmax and KM) was 1.52 µL/min/mg. The Km ([10]; read-out: KM (95% CI)) was 2530 nM.
